Results taken from ChEMBL document CHEMBL4376815, “The Development Process for Discovery and Clinical Advancement of Modern Antimalarials” (J Med Chem, 2019).

Columns and labels:
[1] = Half life in human at 5 to 120 mg,po; assay type: ADME; settings: in vivo
[2] = Half life in human at 80 to 100 mg; assay type: ADME
[3] = Half life in rat; assay type: ADME; settings: in vivo
Plasmodium cynomolgi [4] = assay: Antimalarial activity against schizont stage Plasmodium cynomolgi infected in primary rhesus monkey hepatocytes; assay type: functional, organism-based
[5] = Volume of distribution in rat; assay type: ADME; settings: in vivo
[6] = Volume of distribution in mouse; assay type: ADME, organism-based; settings: in vivo
Plasmodium falciparum [7] = assay: Antimalarial activity against late stage Plasmodium falciparum gametocytes by luciferase reporter gene assay; assay type: functional, organism-based
Plasmodium falciparum [8] = assay: Antimalarial activity against stage 5 Plasmodium falciparum assessed as reduction in oocyst formation in mosquito midgut at 1 uM after 24 hrs by standard membrane-feeding assay relative to control; assay type: functional; design: scale not given: the % may be the effect or the level left
[9] = Oral bioavailability in dog; assay type: ADME, organism-based, Canis lupus familiaris; settings: in vivo
[10] = Volume of distribution in human at 80 to 100 mg; assay type: ADME
[11] = Half life in human at 5 to 120 mg,po in fast condition; assay type: ADME; settings: in vivo
[12] = Plasma clearance in mouse; assay type: ADME, organism-based
[13] = Plasma clearance in dog; assay type: ADME, Canis lupus familiaris
[14] = AUC (0 to infinity) in human at 5 to 120 mg,po; assay type: ADME; settings: in vivo
Plasmodium falciparum [15] = assay: Antimalarial activity Plasmodium falciparum infected in po dosed SCID mouse assessed as reduction in parasite growth administered daily for 4 consecutive days and measured on day 7 by flow cytometric analysis; assay type: functional; settings: 168 h
Plasmodium falciparum [16] = assay: Ex-vivo antimalarial activity against Plasmodium falciparum serum derived from 40 mg, po treated human after 144 hrs; assay type: functional, organism-based
[17] = Half life in monkey; assay type: ADME, Macaca mulatta; settings: rhesus monkey, in vivo
Plasmodium cynomolgi [18] = assay: Antimalarial activity against hypnozoites stage Plasmodium cynomolgi infected in primary rhesus monkey hepatocytes; assay type: functional, organism-based
[19] = Oral bioavailability in monkey; assay type: ADME, organism-based, Macaca mulatta; settings: rhesus monkey, in vivo
[20] = Half life in mouse; assay type: ADME, organism-based; settings: in vivo
Plasmodium falciparum [21] = assay: Antimalarial activity against early stage Plasmodium falciparum gametocytes by luciferase reporter gene assay; assay type: functional, organism-based
[22] = Inhibition of Plasmodium vivax PI4K
[23] = AUC in human at 5 to 120 mg,po in fed condition; assay type: ADME; settings: in vivo
[24] = molecular target: Voltage-dependent L-type calcium channel subunit alpha-1C (Homo sapiens, UniProt Q13936); assay: Inhibition of Cav1.2 (unknown origin)
[25] = Half life in human at 5 to 120 mg,po in fed condition; assay type: ADME; settings: in vivo
[26] = Half life in dog; assay type: ADME, Canis lupus familiaris; settings: in vivo
Plasmodium cynomolgi [27] = assay: Antimalarial activity against hypnozoites stage Plasmodium cynomolgi infected in primary rhesus monkey hepatocytes measured on day 5; assay type: functional, organism-based; settings: 120 h
Plasmodium falciparum [28] = assay: Antimalarial activity against late stage Plasmodium falciparum gametocytes assessed as reduction in gametogenesis exflagellation after 24 hrs; assay type: functional, organism-based
[29] = molecular target: Sodium channel protein type 5 subunit alpha (Homo sapiens, UniProt Q14524); assay: Inhibition of Nav1.5 (unknown origin)
[30] = AUC in human at 5 to 120 mg,po in fast condition; assay type: ADME; settings: in vivo
[31] = Plasma clearance in rat; assay type: ADME
[32] = Plasma clearance in human at 80 to 100 mg; assay type: ADME
[33] = Volume of distribution in dog; assay type: ADME, Canis lupus familiaris; settings: in vivo
Plasmodium berghei = assay: Antimalarial activity against Plasmodium berghei infected in mouse assessed reduction in parasitemia; assay type: functional; design: scale not given: the % may be the effect or the level left
Plasmodium falciparum [34] = assay: Antimalarial activity against stage 5 Plasmodium falciparum assessed as reduction in oocyst formation in mosquito midgut pretreated 24 hrs before feeding by standard membrane-feeding assay; assay type: functional, organism-based

Voltage-dependent L-type calcium channel subunit alpha-1C, sequence (Q13936 whole entry): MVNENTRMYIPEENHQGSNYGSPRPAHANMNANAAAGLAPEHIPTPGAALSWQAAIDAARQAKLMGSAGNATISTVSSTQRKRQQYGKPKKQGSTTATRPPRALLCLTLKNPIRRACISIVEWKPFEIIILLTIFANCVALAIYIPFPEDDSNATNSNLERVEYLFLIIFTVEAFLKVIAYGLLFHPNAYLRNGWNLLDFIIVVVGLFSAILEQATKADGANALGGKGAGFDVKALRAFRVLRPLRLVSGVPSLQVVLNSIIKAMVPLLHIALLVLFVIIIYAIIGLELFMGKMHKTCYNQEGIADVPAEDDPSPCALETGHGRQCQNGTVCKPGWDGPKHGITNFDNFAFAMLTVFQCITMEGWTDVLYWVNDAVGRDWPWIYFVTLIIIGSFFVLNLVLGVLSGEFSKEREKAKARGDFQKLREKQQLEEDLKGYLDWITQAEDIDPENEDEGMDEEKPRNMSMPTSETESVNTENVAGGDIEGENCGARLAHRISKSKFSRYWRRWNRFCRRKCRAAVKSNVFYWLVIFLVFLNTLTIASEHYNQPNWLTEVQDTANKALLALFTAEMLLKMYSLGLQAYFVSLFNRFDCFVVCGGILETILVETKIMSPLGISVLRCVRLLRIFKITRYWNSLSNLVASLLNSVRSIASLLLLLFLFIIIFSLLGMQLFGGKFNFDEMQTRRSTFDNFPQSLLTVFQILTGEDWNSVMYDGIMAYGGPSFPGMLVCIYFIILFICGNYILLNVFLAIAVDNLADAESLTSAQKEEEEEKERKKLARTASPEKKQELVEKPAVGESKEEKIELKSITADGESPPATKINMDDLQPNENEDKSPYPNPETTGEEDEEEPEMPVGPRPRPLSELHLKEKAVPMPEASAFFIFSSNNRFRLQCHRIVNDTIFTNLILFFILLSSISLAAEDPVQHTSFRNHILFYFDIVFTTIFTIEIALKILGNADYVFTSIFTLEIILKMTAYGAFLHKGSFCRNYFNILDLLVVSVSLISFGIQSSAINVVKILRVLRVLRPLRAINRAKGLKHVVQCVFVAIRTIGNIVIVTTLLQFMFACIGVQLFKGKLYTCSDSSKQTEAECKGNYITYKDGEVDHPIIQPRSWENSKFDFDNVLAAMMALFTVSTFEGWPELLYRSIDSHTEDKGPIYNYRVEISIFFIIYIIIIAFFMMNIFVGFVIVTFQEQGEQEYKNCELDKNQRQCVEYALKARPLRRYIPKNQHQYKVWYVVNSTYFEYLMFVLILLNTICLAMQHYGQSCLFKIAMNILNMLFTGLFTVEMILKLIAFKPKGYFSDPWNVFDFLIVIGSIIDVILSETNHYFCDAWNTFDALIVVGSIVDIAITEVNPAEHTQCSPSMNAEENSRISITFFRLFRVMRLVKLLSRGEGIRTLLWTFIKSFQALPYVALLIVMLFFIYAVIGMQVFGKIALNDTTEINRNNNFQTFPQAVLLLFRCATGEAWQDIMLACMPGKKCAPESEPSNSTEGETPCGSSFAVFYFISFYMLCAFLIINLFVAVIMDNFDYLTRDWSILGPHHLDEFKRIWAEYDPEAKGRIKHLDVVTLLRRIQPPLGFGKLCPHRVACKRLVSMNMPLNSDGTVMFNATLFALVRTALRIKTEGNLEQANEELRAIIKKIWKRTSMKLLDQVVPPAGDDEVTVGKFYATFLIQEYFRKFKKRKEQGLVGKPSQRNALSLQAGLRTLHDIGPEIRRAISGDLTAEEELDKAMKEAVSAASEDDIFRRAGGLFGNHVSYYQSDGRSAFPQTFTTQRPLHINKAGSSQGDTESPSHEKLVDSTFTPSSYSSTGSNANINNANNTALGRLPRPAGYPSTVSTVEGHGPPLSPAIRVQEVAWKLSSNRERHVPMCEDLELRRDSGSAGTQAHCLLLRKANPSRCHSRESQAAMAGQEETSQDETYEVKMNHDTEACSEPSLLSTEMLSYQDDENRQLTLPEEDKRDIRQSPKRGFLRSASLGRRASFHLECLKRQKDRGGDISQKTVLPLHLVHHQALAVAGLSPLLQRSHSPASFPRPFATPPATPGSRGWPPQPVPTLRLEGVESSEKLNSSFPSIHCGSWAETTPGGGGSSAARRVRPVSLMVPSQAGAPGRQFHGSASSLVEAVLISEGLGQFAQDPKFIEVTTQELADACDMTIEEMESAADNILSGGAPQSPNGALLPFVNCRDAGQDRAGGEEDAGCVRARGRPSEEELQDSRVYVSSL
Sodium channel protein type 5 subunit alpha, sequence (Q14524 whole entry): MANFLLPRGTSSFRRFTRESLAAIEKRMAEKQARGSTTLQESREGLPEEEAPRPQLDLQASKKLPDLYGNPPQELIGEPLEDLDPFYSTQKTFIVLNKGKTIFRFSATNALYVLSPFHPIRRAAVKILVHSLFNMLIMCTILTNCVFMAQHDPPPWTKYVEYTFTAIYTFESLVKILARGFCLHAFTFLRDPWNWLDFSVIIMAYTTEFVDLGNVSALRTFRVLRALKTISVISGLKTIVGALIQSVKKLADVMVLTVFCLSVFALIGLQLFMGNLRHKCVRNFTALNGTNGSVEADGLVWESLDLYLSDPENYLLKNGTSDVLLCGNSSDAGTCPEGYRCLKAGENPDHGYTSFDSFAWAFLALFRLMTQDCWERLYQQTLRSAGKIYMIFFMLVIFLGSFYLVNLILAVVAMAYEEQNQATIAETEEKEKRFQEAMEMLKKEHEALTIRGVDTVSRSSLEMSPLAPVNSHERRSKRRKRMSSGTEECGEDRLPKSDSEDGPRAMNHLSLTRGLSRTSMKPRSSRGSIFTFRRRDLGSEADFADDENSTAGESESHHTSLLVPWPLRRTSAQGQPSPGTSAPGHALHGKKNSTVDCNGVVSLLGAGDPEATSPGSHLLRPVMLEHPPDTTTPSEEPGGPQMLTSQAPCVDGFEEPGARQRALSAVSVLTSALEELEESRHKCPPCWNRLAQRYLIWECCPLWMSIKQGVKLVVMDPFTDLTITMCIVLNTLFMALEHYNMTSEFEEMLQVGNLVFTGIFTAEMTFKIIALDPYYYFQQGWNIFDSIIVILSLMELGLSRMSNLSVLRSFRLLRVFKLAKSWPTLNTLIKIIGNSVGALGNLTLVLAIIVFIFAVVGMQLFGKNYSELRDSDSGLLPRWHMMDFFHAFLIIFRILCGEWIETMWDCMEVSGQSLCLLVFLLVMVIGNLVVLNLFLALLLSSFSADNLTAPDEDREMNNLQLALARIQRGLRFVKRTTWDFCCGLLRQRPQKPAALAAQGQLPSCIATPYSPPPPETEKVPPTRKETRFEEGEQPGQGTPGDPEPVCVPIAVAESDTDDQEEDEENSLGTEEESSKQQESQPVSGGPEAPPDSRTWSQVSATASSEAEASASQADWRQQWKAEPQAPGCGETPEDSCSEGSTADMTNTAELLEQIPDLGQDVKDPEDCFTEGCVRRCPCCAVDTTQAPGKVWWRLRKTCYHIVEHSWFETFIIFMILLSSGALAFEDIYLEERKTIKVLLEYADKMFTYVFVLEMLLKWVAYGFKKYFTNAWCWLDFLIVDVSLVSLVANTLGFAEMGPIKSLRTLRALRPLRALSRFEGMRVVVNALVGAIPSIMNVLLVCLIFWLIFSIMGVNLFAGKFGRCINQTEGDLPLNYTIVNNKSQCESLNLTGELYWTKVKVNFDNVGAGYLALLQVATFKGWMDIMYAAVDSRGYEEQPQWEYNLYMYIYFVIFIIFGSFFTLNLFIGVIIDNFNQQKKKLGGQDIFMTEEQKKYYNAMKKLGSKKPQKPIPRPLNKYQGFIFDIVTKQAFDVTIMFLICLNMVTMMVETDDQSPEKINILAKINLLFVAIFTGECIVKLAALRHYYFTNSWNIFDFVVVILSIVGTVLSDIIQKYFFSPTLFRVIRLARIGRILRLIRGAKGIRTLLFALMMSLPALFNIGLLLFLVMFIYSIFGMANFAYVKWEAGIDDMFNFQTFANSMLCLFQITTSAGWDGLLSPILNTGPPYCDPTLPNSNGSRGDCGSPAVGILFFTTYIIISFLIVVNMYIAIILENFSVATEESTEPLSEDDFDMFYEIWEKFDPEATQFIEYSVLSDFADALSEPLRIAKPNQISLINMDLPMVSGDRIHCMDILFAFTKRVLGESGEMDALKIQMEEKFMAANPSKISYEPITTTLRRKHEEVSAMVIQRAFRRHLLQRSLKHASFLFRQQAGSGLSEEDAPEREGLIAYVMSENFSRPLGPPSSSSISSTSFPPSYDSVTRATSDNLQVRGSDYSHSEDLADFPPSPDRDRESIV

half-life [1]: 6.79 to 10.5 days | half-life [2]: 3.75 days | half-life [3]: 552 min | Vd [5]: 1.3 to 3 L/kg | Vd [6]: 1.3 to 3 L/kg | EC50 (Plasmodium falciparum [7]): 140 nM | bioavailability [9]: 45% | Vd [10]: 2.8 L/kg | half-life [11]: 8.04 days | clearance [12]: 3 mL/min/kg | clearance [13]: 0.6 mL/min/kg | AUC(0-inf) [14]: 2140 to 156000 ng·h/mL | EC50 (Plasmodium falciparum [16]): 24 nM | half-life [17]: 2.33 days | bioavailability [19]: 74% | half-life [20]: 336 min | EC50 (Plasmodium falciparum [21]): 214 nM | IC50 [22]: 3.4 nM | AUC [23]: 29000 ng·h/mL | half-life [25]: 8.75 days | half-life [26]: 2.42 days | EC50 (Plasmodium falciparum [28]): 90 nM | AUC [30]: 21000 ng·h/mL | clearance [31]: 6.5 mL/min/kg | clearance [32]: 0.333 mL/min | Vd [33]: 1.3 to 3 L/kg
SMILES: CS(=O)(=O)c1ccc(-c2cnc(N)c(-c3ccc(C(F)(F)F)nc3)c2)cc1 [MMV-048]
EC50 (Plasmodium cynomolgi [4]): 64 nM | Activity (Plasmodium falciparum [8]): >25% | ED90 (Plasmodium falciparum [15]): 0.57 mg/kg | ED99 (Plasmodium falciparum [15]): 1.1 mg/kg | EC50 (Plasmodium cynomolgi [18]): 61 nM | IC50 [24]: > 10 µM | EC50 (Plasmodium cynomolgi [27]): > 10 µM | IC50 [29]: > 10 µM | Activity (Plasmodium berghei): 98 - 99.5% | EC50 (Plasmodium falciparum [34]): 111 nM
